Measurements: ChEMBL document CHEMBL1157539, “Thousands of chemical starting points for antimalarial lead identification” (Nature, 2010)

tested on: Plasmodium falciparum; experiment: GSK_TCMDC: Inhibition of Plasmodium falciparum 3D7 in whole erythrocytes, using parasite LDH activity as an index of growth.; type: functional, organism-based; conditions: Plasmodium falciparum, 3D7

Which XC50 does the source give for O=C(CNCC1CCCCC1)Nc1cc(C(F)(F)F)ccc1Cl here?
The XC50 was 982 nM.

How did the XC50 turn out when COc1cc2nc(NCCc3ccccc3)nc(NCc3nccs3)c2cc1OC was run?
Its XC50 is 532 nM.

With CCCN(Cc1ccc(C)cc1)Cc1cc(=O)c2cc(Cl)ccc2[nH]1 as the compound, how does the XC50 read?
Its XC50 is 1050 nM.

Which XC50 does the source give for CC(C)(C)Nc1cc(C(=O)N[C@@H](Cc2ccccc2)[C@H](O)CNC2CCOCC2)cc(N2CCCCS2(=O)=O)c1 here?
The XC50 was 150 nM.

For CC(C)CNCc1ccc(-c2ccc(CN(C(=O)Nc3ccccc3)C3CCN(Cc4ccccc4)CC3)cc2)cc1, which XC50 is on record?
Its XC50 is 680 nM.

Which XC50 does the source give for O=C(Nc1ccc(-c2cccc(-c3nc4ccccc4[nH]3)c2)cc1)Nc1ccc2c(c1)OCO2 here?
The XC50 was 254 nM.

With COC(=O)c1cccc(NC(=O)NC2CCN(c3ccnc(Nc4cc(OC)c(OC)c(OC)c4)n3)C2)c1 (centres undefined) as the compound, how does the XC50 read?
The XC50 was 512 nM.

Which XC50 does the source give for CCCCCCNC(=O)C1Cc2c([nH]c3ccccc23)C2(CCN(CCc3ccccc3)CC2)N1 (centres undefined) here?
Its XC50 is 1140 nM.

How did the XC50 turn out when COc1ccc(NS(=O)(=O)c2ccc(C(=O)Nc3ccc(OC(F)(F)F)cc3)cc2)cc1N1CCN(CC2CC2)CC1 was run?
The XC50 was 1000 nM.

How did the XC50 turn out when CS(=O)(=O)Cc1ccc(Nc2ncc(Cl)c(Nc3cccnc3C(N)=O)n2)cc1 was run?
Its XC50 is 868 nM.

With O=C(Nc1cccc(CN2CCCN(CCc3ccccc3)CC2)c1)c1cc2ccccc2s1 as the compound, how does the XC50 read?
The XC50 was 1130 nM.

Cc1cc(N)nc2ccc(-c3cccc(CN)c3)cc12 was tested. Which XC50 did it give?
The XC50 was 707 nM.

For COc1ccc2nc3cc(Cl)ccc3c(NCCCO)c2c1, which XC50 is on record?
Its XC50 is 783 nM.

With Cc1nc(N)nc(N)c1CCCOc1cccc(Cl)c1 as the compound, how does the XC50 read?
Its XC50 is 476 nM.

O=C(CC(=O)Nc1cc(Cl)cc(Cl)c1)Nc1cc(Cl)cc(Cl)c1 was tested. Which XC50 did it give?
Its XC50 is 159 nM.

Which XC50 does the source give for CC(C)c1ccc(NC(=O)NCCCC2CCCN(CCCCCNC(=O)/C=C/c3ccc(Cl)c(Cl)c3)C2)cc1 (centres undefined) here?
Its XC50 is 957 nM.

NC1CCN(c2nc(NCCCc3ccc(O)cc3)nc(NCc3ccccc3-c3ccc(C(F)(F)F)cc3)n2)CC1 was tested. Which XC50 did it give?
Its XC50 is 727 nM.

How did the XC50 turn out when O=C(Nc1cccc(-c2ccc(-c3nc4cc(C(F)(F)F)ccc4[nH]3)cc2)c1)c1csnn1 was run?
Its XC50 is 686 nM.

Which XC50 does the source give for Cc1ccccc1C1CCN(C2CCC(NC(=O)/C=C/c3ccc4c(c3)OC(F)(F)O4)CC2)CC1 (centres undefined) here?
The XC50 was 666 nM.

Which XC50 does the source give for COc1c(OC)c(OC)c2ccccc2c1CNCCCCCCNCc1c(OC)c(OC)c(OC)c2ccccc12 here?
The XC50 was 759 nM.

With CN(CCC1CCN(C(=O)/C=C/c2ccc(Cl)c(Cl)c2)CC1)C1CCC(c2c[nH]c3ccccc23)CC1 (centres undefined) as the compound, how does the XC50 read?
Its XC50 is 774 nM.

For O=C(Cn1c(=O)oc2ccccc21)N1CCC(n2c(=O)n(CCCN3CCOCC3)c3ccccc32)CC1, which XC50 is on record?
The XC50 was 774 nM.

With CC[C@H](C)CNC(=O)c1cncc(-c2ccc(CNCCOc3ccccc3)cc2)c1 as the compound, how does the XC50 read?
The XC50 was 1110 nM.

How did the XC50 turn out when COCCNCc1nc(-c2ccc3c(Nc4ccc(Cl)cc4F)ccnc3c2)cs1 was run?
Its XC50 is 1080 nM.

How did the XC50 turn out when COc1c(C2=CCN(CCCCNC(=O)c3ccc(-c4ccc(C#N)cc4)cc3)CC2)c(C)cc2c1C(C)(C)CCC2(C)C was run?
The XC50 was 947 nM.

O=C(Nc1ccc(-c2ccccc2)cc1)Nc1cccc(Cn2cnc(N3CCCNCC3)cc2=O)c1 was tested. Which XC50 did it give?
The XC50 was 1080 nM.

How did the XC50 turn out when COc1ccccc1C(C)NCC(=O)Nc1cc(C(F)(F)F)ccc1Cl (centres undefined) was run?
Its XC50 is 778 nM.

Oc1ccc(Cl)c2c1C(c1ccccc1)=NCC2 was tested. Which XC50 did it give?
The XC50 was 540 nM.

For N=C(N)Nc1nc(-c2cccc(NC(=O)Cc3ccccc3)c2)cs1, which XC50 is on record?
The XC50 was 1000 nM.

Which XC50 does the source give for N#Cc1ccc2c(c1)CCN(CCC1CCC(NC(=O)c3cc4ccc(Cl)cc4[nH]3)CC1)C2 (centres undefined) here?
The XC50 was 700 nM.

For CCc1ccccc1-c1csc(C(=O)NCC2CCN(Cc3ccc(C(C)(C)C)cc3)C2)c1 (centres undefined), which XC50 is on record?
Its XC50 is 1150 nM.

For CN(C)Cc1cccc(-c2ccc(NC(=O)c3ccc4c(=O)n(C5CCCCC5)cnc4c3)cc2)c1, which XC50 is on record?
Its XC50 is 744 nM.

For [O-][s+]1c(Cl)c(-c2ccc(Cl)cc2)c2ccc(Cl)cc21 (centres undefined), which XC50 is on record?
Its XC50 is 993 nM.

How did the XC50 turn out when OCC1CCN(Cc2ccc(-c3ccc(-c4nc5cc(C(F)(F)F)ccc5[nH]4)cc3)cc2)CC1 was run?
The XC50 was 697 nM.

Which XC50 does the source give for Cc1cccc2nc(-c3ccc(-c4ccc(NC(=O)NCc5cccc(F)c5)cc4)cc3)[nH]c12 here?
Its XC50 is 1300 nM.

CN(CCN1CCC(c2c[nH]c3ccccc23)CC1)C(=O)OCCCCCNC(=O)/C=C/c1ccc(Cl)c(Cl)c1 was tested. Which XC50 did it give?
Its XC50 is 678 nM.

For Cc1nc(Nc2ccc(F)cc2)nc(N2CCc3cc(O)ccc3C2C)c1C (centres undefined), which XC50 is on record?
The XC50 was 754 nM.

With CN(CCN1CCCC1)c1nc2cc(-n3cnc4cc(-c5ccc(Cl)cc5)sc4c3=O)ccc2[nH]1 as the compound, how does the XC50 read?
The XC50 was 824 nM.

How did the XC50 turn out when COc1ccc(C=Cc2ccc(-c3c(C)[nH]c(C)c(Cl)c3=O)cc2)cc1OC was run?
Its XC50 is 283 nM.

For c1cncc(CCNCc2ccc(-c3ccc(-c4nc5ccccc5[nH]4)s3)cc2)c1, which XC50 is on record?
Its XC50 is 213 nM.

Cc1cccc2nc(-c3ccc(-c4ccc(NC(=O)Nc5ccsc5)cc4)s3)[nH]c12 was tested. Which XC50 did it give?
The XC50 was 113 nM.

For O=C(N[C@H]1CCN(CCc2ccc(O[C@H]3CCNC3)c(F)c2)C1)c1ccc(Cl)c(Cl)c1, which XC50 is on record?
Its XC50 is 1190 nM.

For COc1ccc2nccc([C@@H](O)CN3CCC(NCc4nc5cc(F)c(F)cc5[nH]4)CC3)c2c1, which XC50 is on record?
Its XC50 is 533 nM.

For CC1(C)NC(N)=NC(=N)N1OCCCCOc1ccc(Cl)cc1C1CCCCC1, which XC50 is on record?
Its XC50 is 3.2 nM.

How did the XC50 turn out when CC1(C)CCCN(c2ncc(-c3cccc(CNCc4ccccc4O)c3)cn2)C1 was run?
Its XC50 is 886 nM.

How did the XC50 turn out when CCC(C)CN1CCC(N(C)c2cc(NC(=O)c3cccc(C)c3)ccn2)CC1 (centres undefined) was run?
Its XC50 is 937 nM.

With c1ccc(C(c2ccccc2)N2CCN(C(c3cccnc3)c3nnnn3C3CCCC3)CC2)cc1 (centres undefined) as the compound, how does the XC50 read?
Its XC50 is 1080 nM.

Which XC50 does the source give for CCSc1ccccc1COc1c(C)nc(N)nc1N here?
The XC50 was 68.4 nM.

For CCN(C(=O)CSc1cc(C)c2cc(C)cc(C)c2n1)C1CCS(=O)(=O)C1 (centres undefined), which XC50 is on record?
Its XC50 is 667 nM.
